Laboratory results taken from PubChem BioAssay (NCI).
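These data come from cells grown in 96-well plates and exposed to compound for 48 hours at five concentrations. Definition used: TGI = concentration required for complete inhibition of growth.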

Experiments:
Test in all cases: NCI-60 cell line screen, 48 h
HCT-15 colon = system: HCT-15 colon
ACHN renal = system: ACHN renal
SR leukemia = system: SR leukemia
RPMI-8226 leukemia = system: RPMI-8226 leukemia
SF-539 CNS = system: SF-539 CNS
A498 renal = system: A498 renal
IGROV1 ovarian = system: IGROV1 ovarian
SNB-78 CNS = system: SNB-78 CNS
HOP-62 NSCLC = system: HOP-62 NSCLC
COLO 205 colon = system: COLO 205 colon
NCI-H23 lung = system: NCI-H23 lung
SN12C renal = system: SN12C renal
DLD-1 colon = system: DLD-1 colon
OVCAR-3 ovarian = system: OVCAR-3 ovarian
SF-268 CNS = system: SF-268 CNS
SNB-75 CNS = system: SNB-75 CNS
SK-MEL-2 melanoma = system: SK-MEL-2 melanoma
NCI-H460 lung = system: NCI-H460 lung
MOLT-4 leukemia = system: MOLT-4 leukemia
M19-MEL melanoma = system: M19-MEL melanoma
OVCAR-8 ovarian = system: OVCAR-8 ovarian
NCI-H226 lung = system: NCI-H226 lung
OVCAR-5 ovarian = system: OVCAR-5 ovarian
KM20L2 colon = system: KM20L2 colon
SW-620 colon = system: SW-620 colon
DMS 273 small cell lung = system: DMS 273 small cell lung
SK-OV-3 ovarian = system: SK-OV-3 ovarian
UACC-62 melanoma = system: UACC-62 melanoma
DMS 114 small cell lung = system: DMS 114 small cell lung
SK-MEL-5 melanoma = system: SK-MEL-5 melanoma
786-0 renal = system: 786-0 renal
XF 498 CNS = system: XF 498 CNS
K-562 leukemia = system: K-562 leukemia
LXFL 529 NSCLC = system: LXFL 529 NSCLC
M14 melanoma = system: M14 melanoma
CAKI-1 renal = system: CAKI-1 renal
NCI-H522 lung = system: NCI-H522 lung
SK-MEL-28 melanoma = system: SK-MEL-28 melanoma
A549 NSCLC = system: A549 NSCLC
HT29 colon = system: HT29 colon
U251 CNS = system: U251 CNS
MALME-3M melanoma = system: MALME-3M melanoma
RXF-631 renal = system: RXF-631 renal
UO-31 renal = system: UO-31 renal
EKVX NSCLC = system: EKVX NSCLC
HCT-116 colon = system: HCT-116 colon
TK-10 renal = system: TK-10 renal
KM12 colon = system: KM12 colon
HOP-92 NSCLC = system: HOP-92 NSCLC
SNB-19 CNS = system: SNB-19 CNS
SF-295 CNS = system: SF-295 CNS
LOX IMVI melanoma = system: LOX IMVI melanoma
UACC-257 melanoma = system: UACC-257 melanoma
RXF 393 renal = system: RXF 393 renal
HOP-18 NSCLC = system: HOP-18 NSCLC
OVCAR-4 ovarian = system: OVCAR-4 ovarian

SMILES: COc1ccc(/C(=N\NC(=O)C(=O)NN)C(c2ccc(OC)cc2)C2(O)C(=O)Nc3ccccc32)cc1 (stereo unspecified)
- TGI (HCT-15 colon): > 100 µM
- TGI (ACHN renal): > 100 µM
- TGI (SR leukemia): > 100 µM
- TGI (RPMI-8226 leukemia): > 100 µM
- TGI (SF-539 CNS): > 100 µM
- TGI (A498 renal): > 100 µM
- TGI (IGROV1 ovarian): > 100 µM
- TGI (SNB-78 CNS): > 100 µM
- TGI (HOP-62 NSCLC): > 100 µM
- TGI (COLO 205 colon): > 100 µM
- TGI (NCI-H23 lung): > 100 µM
- TGI (SN12C renal): > 100 µM
- TGI (DLD-1 colon): > 100 µM
- TGI (OVCAR-3 ovarian): > 100 µM
- TGI (SF-268 CNS): > 100 µM
- TGI (SNB-75 CNS): > 100 µM
- TGI (SK-MEL-2 melanoma): > 100 µM
- TGI (NCI-H460 lung): > 100 µM
- TGI (MOLT-4 leukemia): > 100 µM
- TGI (M19-MEL melanoma): > 100 µM
- TGI (OVCAR-8 ovarian): > 100 µM
- TGI (NCI-H226 lung): > 100 µM
- TGI (OVCAR-5 ovarian): > 100 µM
- TGI (KM20L2 colon): > 100 µM
- TGI (SW-620 colon): > 100 µM
- TGI (DMS 273 small cell lung): > 100 µM
- TGI (SK-OV-3 ovarian): > 100 µM
- TGI (UACC-62 melanoma): > 100 µM
- TGI (DMS 114 small cell lung): > 100 µM
- TGI (SK-MEL-5 melanoma): > 100 µM
- TGI (786-0 renal): > 100 µM
- TGI (XF 498 CNS): > 100 µM
- TGI (K-562 leukemia): > 100 µM
- TGI (LXFL 529 NSCLC): > 100 µM
- TGI (M14 melanoma): > 100 µM
- TGI (CAKI-1 renal): > 100 µM
- TGI (NCI-H522 lung): > 100 µM
- TGI (SK-MEL-28 melanoma): > 100 µM
- TGI (A549 NSCLC): > 100 µM
- TGI (HT29 colon): > 100 µM
- TGI (U251 CNS): > 100 µM
- TGI (MALME-3M melanoma): > 100 µM
- TGI (RXF-631 renal): > 100 µM
- TGI (UO-31 renal): 82.1 µM
- TGI (EKVX NSCLC): > 100 µM
- TGI (HCT-116 colon): > 100 µM
- TGI (TK-10 renal): > 100 µM
- TGI (KM12 colon): > 100 µM
- TGI (HOP-92 NSCLC): > 100 µM
- TGI (SNB-19 CNS): > 100 µM

SMILES: O=C(O)NC(c1ccccc1)C(NC(=O)c1ccccc1)c1ccccc1 (stereo unspecified)
- TGI (HCT-15 colon): > 100 µM
- TGI (ACHN renal): > 100 µM
- TGI (SF-295 CNS): > 100 µM
- TGI (SR leukemia): > 100 µM
- TGI (RPMI-8226 leukemia): > 100 µM
- TGI (SF-539 CNS): > 100 µM
- TGI (A498 renal): > 100 µM
- TGI (IGROV1 ovarian): > 100 µM
- TGI (LOX IMVI melanoma): > 100 µM
- TGI (SNB-78 CNS): > 100 µM
- TGI (UACC-257 melanoma): > 100 µM
- TGI (HOP-62 NSCLC): > 100 µM
- TGI (COLO 205 colon): > 100 µM
- TGI (NCI-H23 lung): > 100 µM
- TGI (SN12C renal): > 100 µM
- TGI (DLD-1 colon): > 100 µM
- TGI (OVCAR-3 ovarian): > 100 µM
- TGI (SF-268 CNS): > 100 µM
- TGI (SNB-75 CNS): > 100 µM
- TGI (SK-MEL-2 melanoma): > 100 µM
- TGI (NCI-H460 lung): > 100 µM
- TGI (RXF 393 renal): > 100 µM
- TGI (M19-MEL melanoma): > 100 µM
- TGI (HOP-18 NSCLC): > 100 µM
- TGI (OVCAR-8 ovarian): > 100 µM
- TGI (OVCAR-5 ovarian): > 100 µM
- TGI (KM20L2 colon): > 100 µM
- TGI (SW-620 colon): > 100 µM
- TGI (OVCAR-4 ovarian): > 100 µM
- TGI (UACC-62 melanoma): > 100 µM
- TGI (DMS 114 small cell lung): > 100 µM
- TGI (786-0 renal): > 100 µM
- TGI (XF 498 CNS): > 100 µM
- TGI (K-562 leukemia): > 100 µM
- TGI (CAKI-1 renal): > 100 µM
- TGI (SK-MEL-28 melanoma): > 100 µM
- TGI (A549 NSCLC): > 100 µM
- TGI (HT29 colon): > 100 µM
- TGI (U251 CNS): > 100 µM
- TGI (MALME-3M melanoma): > 100 µM
- TGI (EKVX NSCLC): > 100 µM
- TGI (HCT-116 colon): > 100 µM
- TGI (TK-10 renal): > 100 µM
- TGI (KM12 colon): > 100 µM
- TGI (HOP-92 NSCLC): > 100 µM
- TGI (SNB-19 CNS): > 100 µM
